Results published in patent US6284523A, “Process for biodegradation of a xenobiotic” (priority 1998, dated 2001).
Like-named read-outs stand apart in the source and are kept apart here.

Experiments:
[1] = tested on: Pseudomonas putida ATCC 11172; test: Biodegradation of solvents (consumed as substrate); assay type: cell-based; details: Table 1; Yes/No
Method: (§1) Pseudomonas putida available under ATCC accession number 11172, an organism known to degrade phenol by the meta pathway (Bayly et al.^17) was used in this Example. The organism was maintained on medium previously described (Fujita et al.^11), containing 5 g/L glucose and 100 mg/L phenol as carbon sources. EDTA was also added to the medium at a 1:1 molar ratio with ferric chloride to prevent the formation of a precipitate. Cultures were grown in 125 mL Erlenmeyer flasks containing 50 mL of maintenance medium in a shaker bath at 30° C. The flasks were allowed to incubate for 36 hours prior to their use as inoculum for fermentation. A total of 160 mL of the cultured medium was centrifuged, the supernatant discarded and the cell fraction resuspended in the remaining 40 mL of medium. The 40 mL aliquot was then used to inoculate the fermentor for the batch and fed batch experiments.
The biodegradability of the solvents was assessed as part of the solvent selection process. 5 mL of each solvent was added to 125 mL Erlenmeyer flasks containing 50 mL of seeded maintenance medium containing 250 mg/L phenol but no glucose. Solvent was not added to one flask, which was used as a control. In addition, 5 mL of corn oil was added to one flask, to serve as a positive control. Flasks were placed on the shaker bath as above for 7 days. The cell density in each flask was measured every 24 hours. The net change in cell density was then compared to the change in cell density seen in the control and the positive control.

[2] = Determination of partition coefficients of phenol between solvent and medium buffer; assay type: physicochemical
Method: A stock solution of medium buffer containing 5 g/L of phenol was prepared, and 5 mL samples of the medium buffer were then contacted with 5 mL of solvent using the Mixxor™ contacting system. The contacted samples were then centrifuged, and the organic phase was aspirated and discarded. […] A red colour was developed in the samples, and the absorbance of the solution was measured relative to a blank using a Bausch and Lomb Spectronic 2000™ spectrophotometer. The partition coefficient for phenol in each organic-aqueous system was then be determined by mass balance. Any solvents that formed emulsions with the aqueous phase were eliminated from the solvent screening process, due to the difficulties associated with calculating partition coefficients for these systems.

[3] = Method: (§2) Fermentation was carried out in a 2 L New Brunswick Scientific BioFlo reactor modified for aeration with a fritted glass tube. The fermentor was operated at 30° C., agitated at 200 rpm and aerated at 0.25 vvm, based on the aqueous phase volume. The pH was controlled at 6.8 using 2N KOH. The fermentor was heat sterilized with 1 L of medium (containing no carbon source) already in place. The sterilized medium was then inoculated, and 500 mL of the organic solvent, loaded with 4 g of phenol, was added, as depicted in the schematic diagram shown in FIG. 1. A control fermentor was also prepared in the same manner, but with a cell free aqueous phase, to test for possible volatilization of phenol due to air stripping.
The pH was controlled at 6.8 using 2N KOH.

[4] = tested on: Pseudomonas putida; details: cited from earlier work
[5] = tested on: Pseudomonas putida ATCC 11172
Method: The microorganism used for these experiments was Pseudomonas putida available under ATCC accession number 11172. The organism was maintained in liquid and solid culture, transferred weekly. The maintenance medium formulation used was as previously described (Fujita et al.^11), with 5 g/L glucose and 100 mg/L phenol provided as carbon sources. Cultures were grown in 125 mL flasks containing 50 mL of medium in a shaker bath at 30° C. for 36 hours prior to inoculation of the fermentor. A total of 160 mL of inoculum from 4 flasks was concentrated by centrifugation, the supernatant decanted and the cell fraction resuspended in the remaining 40 mL of medium to prepare the final inoculum.
as §2
Cell density was estimated by measuring the optical density of samples taken from the aqueous phase at 650 nm. Phenol concentrations in the aqueous phase were estimated using the 4-aminoantipyrine method (Der Yang et al.^12) and a Bausch and Lomb Spectronic 2000 spectrophotometer. The samples were centrifuged prior to analysis in order to remove the cell fraction. The concentration of phenol in the organic phase was measured by contacting a sample taken from the organic phase with medium buffer using a Mixxora contacting system. The resulting mixture was centrifuged, the organic phase aspirated, and the buffer analyzed using the 4-aminoantipyrine method, as mentioned above. The amount of phenol present in the organic phase was then calculated by mass balance using an […] partition coefficient.

[6] = tested on: Pseudomonas putida ATCC 11172; remark: listed apart in the source
Method: (§3) Samples were taken from the organic and aqueous phases every twelve hours throughout the fermentations. Samples were centrifuged prior to analysis to separate the cell fraction, aqueous phase and organic layer. […] The organic samples were contacted with medium buffer using the Mixxor™ contacting system. The resulting mixture was then centrifuged, and the organic phase aspirated off. Phenol levels in the buffer were then determined as above, and the experimentally determined partition coefficient was used to calculate the concentration of phenol present in the organic phase. Cell density was assessed as described above. Consumption of base was also monitored.

[7] = tested on: Pseudomonas putida ATCC 11172; remark: listed apart in the source
Method: as §1
The fermentor was prepared as above, but with a second glass sparger added to improve aeration. A propeller was added to the stir shaft of the fermentation vessel, in an attempt to reduce foaming. The fermentation was allowed to progress normally, but when the phenol concentration in the organic phase reached 2 g/L, 250 ml of the organic phase was removed, and spiked with approximately 9 g of phenol. The organic sample was then returned to the reactor, bringing the overall concentration of phenol in the organic phase back to 20 g/L. This was done twice, at 72 hours and at 120 hours. Nutrient spikes (the standard carbon-free medium formulation dissolved in 50 mL of water, instead of 1 L) were also added at 96 hours and at 132 hours, to avoid nutrient depletion in the aqueous phase.
Samples were taken from the organic and aqueous phases every twelve hours throughout the fermentations. Samples were centrifuged prior to analysis to separate the cell fraction, aqueous phase and organic layer. Phenol concentrations in the aqueous phase were assayed using the 4-aminoantipyrine method as described above. The organic samples were contacted with medium buffer using the Mixxor™ contacting system. The resulting mixture was then centrifuged, and the organic phase aspirated off. Phenol levels in the buffer were then determined as above, and the experimentally determined partition coefficient was used to calculate the concentration of phenol present in the organic phase. Cell density was assessed as described above. Consumption of base was also monitored.

[8] = tested on: Pseudomonas putida ATCC 11172; remark: listed apart in the source
Method: To allow for complete biodegradation of the substrate, the carbon-free medium formulation was doubled in concentration, in order to provide adequate nutrients for the fermentation. The fermentor was initially aerated to 0.25 vvm and agitated at 200 rpm, but during the fermentation aeration was increased to 0.5 vvm, and agitation to 250 rpm, to increase the mass transfer of oxygen to the cells. A dissolved oxygen electrode was used to monitor the level of oxygen in the aqueous phase. The pH of the system was controlled at 6.8 using 1N KOH.
as §3

[9] = 28 g fed batch, initial 10 g of phenol

## CCCCCCCCCCO [1-decanol]
[1]
  Consumed as Substrate: Yes

## CCCCCCCCCO [1-nonanol]
[1]
  Consumed as Substrate: Yes

## CCCCCCCCCCCO [1-undecanol]
[2]
  Partition Coefficient: 20.8
[1]
  Consumed as Substrate: Yes

## CCCCCCCCC(C)O (centres unmarked) [2-decanol]
[2]
  Partition Coefficient: 22.6
[1]
  Consumed as Substrate: No

## CCCCCCCCC(C)=O [2-decanone]
[1]
  Consumed as Substrate: No

## CCCCCCCC(C)O (centres unmarked) [2-nonanol]
[2]
  Partition Coefficient: 28.3
[1]
  Consumed as Substrate: No

## CCCCCCCCCC(C)=O [2-undecanone]
[1]
  Consumed as Substrate: No

## Oc1ccccc1 [phenol]
[3]; cell free fermentor, 48 hours, Example 1
  loss of phenol to volatilization: no loss of phenol to volatilization
[3]; control (cell-free) fermentor, Example 2
  loss of phenol due to air stripping: no phenol was lost due to air stripping
[4]; Hill et al., g cells/g phenol
  typical yield coefficient on phenol: 0.52 ± 0.08 g/g
[4]; Hill et al., printed without unit in Example 1
  yield coefficient: 0.52+/-0.08
[4]; Kotturi et al.
  typical inhibitory value of phenol: 500 mg/L
[4]; highest literature value, batch system, Fujita et al.
  volumetric phenol consumption rate: 37.5 mg/L-h
[5]; 4 g phenol in 500 mL 2-undecanone, 1 L aqueous
  initial concentration of phenol in the aqueous phase: approximately 168 mg/L
[5]; 4 g phenol, 2-undecanone, batch
  time to consumption of phenol to exhaustion: over 48 hours
[5]; 4 g phenol, batch
  initial lag phase: 12 h
[5]; based on aqueous phase volume, 4 g phenol, batch
  volumetric phenol consumption rate: approximately 80 mg/L-h
[5]; cells in aqueous phase only, 4 g phenol
  yield coefficient: approximately 0.21 g cells produced/g phenol consumed
[6]; 4 g phenol batch, cells in aqueous phase only
  yield coefficient: 0.20 g cells/g phenol
[6]; 4 g phenol in organic phase
  initial concentration of phenol in the aqueous phase: 168 mg/L
[6]; 4 g phenol, batch
  initial lag phase: 12 h
[7]; 28 g fed batch system, cells in aqueous phase only
  yield coefficient: 0.12 g/g
[7]; [9]
  exponential growth phase: 48 h
  lag phase: 24 h
[7]; fed batch mode
  lag phase of cell growth for the spikes of phenol: eliminates the lag phase
[7]; fed batch system
  time to degrade 28 g of phenol: about 165 hours
  volumetric consumption rate: 175 mg/L-h
[7]; fed batch, time from start of fermentation
  time to consumption of the last 10 g of phenol to exhaustion: under 168 hours
[8]; 10 g batch system, cells in aqueous phase only
  yield coefficient: 0.15 g/g
[8]; 10 g phenol in organic phase
  initial concentration of phenol in the aqueous phase: approximately 420 mg/L
[8]; 10 g phenol, batch
  lag phase: about 24 hours
[8]; the batch system, based on aqueous phase volume
  volumetric phenol consumption rate: approximately 135 mg/L-h
